Laboratory results taken from US20260262643A1, “HERBICIDAL BENZOXAZINES” (FMC CORPORATION, priority 2022, published 2026).

How the values were obtained:
barnyardgrass [1] = assay: Test C preemergence; assay type: in vivo, Echinochloa crusgalli; conditions: 0 to 100 scale (0 no effect, 100 complete control); for Plant response rating, Barnyardgrass: Preemergence, 500 g ai/ha, visual rating after 10 days; for Barnyardgrass plant response rating: Test C, preemergence, 125 g ai/ha
How it was run: (§1)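 Visual injury score, 0–100 (100 = complete control), taken 10 days after treatment relative to untreated controls. Pre: directed spray onto soil over sown seeds. Post: foliar spray at one- to two-leaf stage, 2–10 cm. Solvent/surfactant formulation; loam–sand soil; greenhouse.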

blackgrass [2] = assay: Test C preemergence; assay type: in vivo, Alopecurus myosuroides; conditions: 0 to 100 scale (0 no effect, 100 complete control); for Plant response rating, Blackgrass: Preemergence, 500 g ai/ha, visual rating after 10 days; for Blackgrass plant response rating: Test C, preemergence, 125 g ai/ha
How it was run: as §1

corn [3] = assay: Test C preemergence; assay type: in vivo, Zea mays; conditions: 0 to 100 scale (0 no effect, 100 complete control); for Plant response rating, Corn: Preemergence, 500 g ai/ha, visual rating after 10 days; for Corn plant response rating: Test C, preemergence, 125 g ai/ha
How it was run: as §1

green foxtail [4] = assay: Test C preemergence; assay type: in vivo, Setaria viridis; conditions: 0 to 100 scale (0 no effect, 100 complete control); for Plant response rating, Foxtail, Green: Preemergence, 500 g ai/ha, visual rating after 10 days; for Foxtail, Green plant response rating: Test C, preemergence, 125 g ai/ha
How it was run: as §1

kochia [5] = assay: Test C preemergence; assay type: in vivo, Bassia scoparia; conditions: 0 to 100 scale (0 no effect, 100 complete control); for Plant response rating, Kochia: Preemergence, 500 g ai/ha, visual rating after 10 days; for Kochia plant response rating: Test C, preemergence, 125 g ai/ha
How it was run: as §1

oat, wild [6] = assay: Test C preemergence; assay type: in vivo, Avena fatua; conditions: 0 to 100 scale (0 no effect, 100 complete control); for Plant response rating, Oat, Wild: Preemergence, 500 g ai/ha, visual rating after 10 days; for Oat, Wild plant response rating: Test C, preemergence, 125 g ai/ha
How it was run: as §1

pigweed, palmer [7] = assay: Test C preemergence; assay type: in vivo, Amaranthus palmeri; conditions: 0 to 100 scale (0 no effect, 100 complete control); for Plant response rating, Pigweed, Palmer: Preemergence, 500 g ai/ha, visual rating after 10 days; for Pigweed, Palmer plant response rating: Test C, preemergence, 125 g ai/ha
How it was run: as §1

ragweed [8] = assay: Test C preemergence; assay type: in vivo, Ambrosia artemisiifolia; conditions: 0 to 100 scale (0 no effect, 100 complete control); for Plant response rating, Ragweed: Preemergence, 500 g ai/ha, visual rating after 10 days; for Ragweed plant response rating: Test C, preemergence, 125 g ai/ha
How it was run: as §1

ryegrass, Italian [9] = assay: Test C preemergence; assay type: in vivo, Lolium multiflorum; conditions: 0 to 100 scale (0 no effect, 100 complete control); for Plant response rating, Ryegrass, Italian: Preemergence, 500 g ai/ha, visual rating after 10 days; for Ryegrass, Italian plant response rating: Test C, preemergence, 125 g ai/ha
How it was run: as §1

soybean [10] = assay: Test C preemergence; assay type: in vivo, Glycine max; conditions: 0 to 100 scale (0 no effect, 100 complete control); for Plant response rating, Soybean: Preemergence, 500 g ai/ha, visual rating after 10 days; for Soybean plant response rating: Test C, preemergence, 125 g ai/ha
How it was run: as §1

wheat [11] = assay: Test C preemergence; assay type: in vivo, Triticum aestivum; conditions: 0 to 100 scale (0 no effect, 100 complete control); for Plant response rating, Wheat: Preemergence, 500 g ai/ha, visual rating after 10 days; for Wheat plant response rating: Test C, preemergence, 125 g ai/ha
How it was run: as §1

barnyardgrass [12] = assay: Test C postemergence; assay type: in vivo, Echinochloa crusgalli; conditions: 10 days
How it was run: as §1

blackgrass [13] = assay: Test C postemergence; assay type: in vivo, Alopecurus myosuroides; conditions: 10 days
How it was run: as §1

corn [14] = assay: Test C postemergence; assay type: in vivo, Zea mays; conditions: 10 days
How it was run: as §1

green foxtail [15] = assay: Test C postemergence; assay type: in vivo, Setaria viridis; conditions: 10 days
How it was run: as §1

kochia [16] = assay: Test C postemergence; assay type: in vivo, Bassia scoparia; conditions: 10 days
How it was run: as §1

oat, wild [17] = assay: Test C postemergence; assay type: in vivo, Avena fatua; conditions: 10 days
How it was run: as §1

pigweed, palmer [18] = assay: Test C postemergence; assay type: in vivo, Amaranthus palmeri; conditions: 10 days
How it was run: as §1

ragweed [19] = assay: Test C postemergence; assay type: in vivo, Ambrosia artemisiifolia; conditions: 10 days
How it was run: as §1

ryegrass, Italian [20] = assay: Test C postemergence; assay type: in vivo, Lolium multiflorum; conditions: 10 days
How it was run: as §1

soybean [21] = assay: Test C postemergence; assay type: in vivo, Glycine max; conditions: 10 days
How it was run: as §1

wheat [22] = assay: Test C postemergence; assay type: in vivo, Triticum aestivum; conditions: 10 days
How it was run: as §1

galium = assay: Test C postemergence; assay type: in vivo, Galium aparine; conditions: 10 days
How it was run: as §1

horseweed = assay: Test C postemergence; assay type: in vivo, Erigeron canadensis; conditions: 10 days
How it was run: as §1

barnyardgrass [23] = assay: Test D flooded paddy test; assay type: in vivo, Echinochloa crus-galli; conditions: 250 g ai/ha, applied to paddy water, visual rating after 13 to 14 days, scale 0 to 100 (0 no effect, 100 complete control)
How it was run: (§2)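 Plants at the 2-leaf stage were grown in pots flooded to 3 cm, and compound was applied directly into the paddy water, with depth kept throughout. After 13–14 days in a greenhouse, injury was rated visually against untreated controls on a 0–100 scale (100 = complete control); a dash means not tested.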

ducksalad = assay: Test D flooded paddy test; assay type: in vivo, Heteranthera limosa; conditions: 250 g ai/ha, applied to paddy water, visual rating after 13 to 14 days, scale 0 to 100 (0 no effect, 100 complete control)
How it was run: as §2

rice = assay: Test D flooded paddy test; assay type: in vivo, Oryza sativa; conditions: 250 g ai/ha, applied to paddy water, visual rating after 13 to 14 days, scale 0 to 100 (0 no effect, 100 complete control)
How it was run: as §2

sedge, umbrella = assay: Test D flooded paddy test; assay type: in vivo, Cyperus difformis; conditions: 250 g ai/ha, applied to paddy water, visual rating after 13 to 14 days, scale 0 to 100 (0 no effect, 100 complete control)
How it was run: as §2

[24] = 125 g ai/ha, postemergence, 0 to 100 scale, 0 no effect, 100 complete control
[25] = Postemergence, 500 g ai/ha, visual 0 to 100 scale (0 no effect, 100 complete control)

CC(C)c1ncn(-c2ccc(SC(F)(F)F)c(C(=O)N3C[C@H](C)Oc4c(Cl)cccc43)c2)n1 [Compound 249]
0: Plant response rating, Corn (corn [3]) | Corn plant response rating (corn [3]) | Plant response rating, Kochia (kochia [5]) | Kochia plant response rating (kochia [5]) | Plant response rating, Oat, Wild (oat, wild [6]) | Oat, Wild plant response rating (oat, wild [6]) | Plant response rating, Ragweed (ragweed [8]) | Ragweed plant response rating (ragweed [8]) | Soybean plant response rating (soybean [10]) | Plant response rating, Wheat (wheat [11]) | Wheat plant response rating (wheat [11]) | Plant response rating, Blackgrass (blackgrass [13]; [24]) | Plant response rating, Blackgrass (blackgrass [13]; [25]) | Plant response rating, Corn (corn [14]; [24]) | Plant response rating, Oat, Wild (oat, wild [17]; [24]) | Plant response rating, Oat, Wild (oat, wild [17]; [25]) | Plant response rating, Ragweed (ragweed [19]; [24]) | Plant response rating, Ragweed (ragweed [19]; [25]) | Plant response rating, Ryegrass, Italian (ryegrass, Italian [20]; [24]) | Plant response rating, Ryegrass, Italian (ryegrass, Italian [20]; [25]) | Plant response rating, Horseweed (horseweed; [24]) | Plant response rating, Horseweed (horseweed; [25]) | Plant response rating, Barnyardgrass (Flood) (barnyardgrass [23]) | Plant response rating, Ducksalad (Flood) (ducksalad) | Plant response rating, Rice (Flood) (rice) | Plant response rating, Sedge, Umbrella (Flood) (sedge, umbrella)
70: Plant response rating, Pigweed, Palmer (pigweed, palmer [18]; [25])
50: Plant response rating, Kochia (kochia [16]; [24])
20: Plant response rating, Barnyardgrass (barnyardgrass [1]) | Barnyardgrass plant response rating (barnyardgrass [1]) | Blackgrass plant response rating (blackgrass [2]) | Plant response rating, Soybean (soybean [10])
60: Plant response rating, Blackgrass (blackgrass [2]) | Plant response rating, Ryegrass, Italian (ryegrass, Italian [9])
90: Plant response rating, Foxtail, Green (green foxtail [4]) | Foxtail, Green plant response rating (green foxtail [4]) | Plant response rating, Galium (galium; [24])
100: Plant response rating, Soybean (soybean [21]; [24]) | Plant response rating, Soybean (soybean [21]; [25])
10: Plant response rating, Barnyardgrass (barnyardgrass [12]; [24]) | Plant response rating, Barnyardgrass (barnyardgrass [12]; [25]) | Plant response rating, Corn (corn [14]; [25]) | Plant response rating, Wheat (wheat [22]; [24]) | Plant response rating, Wheat (wheat [22]; [25])
30: Plant response rating, Pigweed, Palmer (pigweed, palmer [7]) | Pigweed, Palmer plant response rating (pigweed, palmer [7]) | Plant response rating, Foxtail, Green (green foxtail [15]; [24]) | Plant response rating, Foxtail, Green (green foxtail [15]; [25])
80: Plant response rating, Kochia (kochia [16]; [25])
40: Ryegrass, Italian plant response rating (ryegrass, Italian [9]) | Plant response rating, Pigweed, Palmer (pigweed, palmer [18]; [24])

Cc1cccc2c1O[C@@H](C)CN2C(=O)c1cc(-n2cnc(C(C)C)n2)cc2occc12 [Compound 195]
100: Plant response rating, Barnyardgrass (barnyardgrass [1]) | Plant response rating, Foxtail, Green (green foxtail [4]) | Foxtail, Green plant response rating (green foxtail [4]) | Plant response rating, Kochia (kochia [5]) | Plant response rating, Pigweed, Palmer (pigweed, palmer [7]) | Pigweed, Palmer plant response rating (pigweed, palmer [7]) | Plant response rating, Ragweed (ragweed [8]) | Plant response rating, Ryegrass, Italian (ryegrass, Italian [9]) | Plant response rating, Soybean (soybean [10]) | Plant response rating, Kochia (kochia [16]; [25]) | Plant response rating, Pigweed, Palmer (pigweed, palmer [18]; [25]) | Plant response rating, Soybean (soybean [21]; [24]) | Plant response rating, Soybean (soybean [21]; [25]) | Plant response rating, Galium (galium; [25])
70: Kochia plant response rating (kochia [5]) | Soybean plant response rating (soybean [10]) | Plant response rating, Ragweed (ragweed [19]; [24]) | Plant response rating, Ragweed (ragweed [19]; [25]) | Plant response rating, Horseweed (horseweed; [25]) | Plant response rating, Ducksalad (Flood) (ducksalad)
10: Plant response rating, Oat, Wild (oat, wild [17]; [24])
30: Blackgrass plant response rating (blackgrass [2]) | Plant response rating, Barnyardgrass (barnyardgrass [12]; [24])
40: Plant response rating, Blackgrass (blackgrass [2]) | Plant response rating, Ryegrass, Italian (ryegrass, Italian [20]; [24])
60: Ragweed plant response rating (ragweed [8]) | Plant response rating, Barnyardgrass (barnyardgrass [12]; [25])
0: Plant response rating, Corn (corn [3]) | Corn plant response rating (corn [3]) | Wheat plant response rating (wheat [11]) | Plant response rating, Rice (Flood) (rice)
45: Plant response rating, Barnyardgrass (Flood) (barnyardgrass [23])
50: Plant response rating, Blackgrass (blackgrass [13]; [24]) | Plant response rating, Corn (corn [14]; [24]) | Plant response rating, Foxtail, Green (green foxtail [15]; [24]) | Plant response rating, Wheat (wheat [22]; [25])
20: Oat, Wild plant response rating (oat, wild [6]) | Plant response rating, Wheat (wheat [22]; [24])
90: Barnyardgrass plant response rating (barnyardgrass [1]) | Plant response rating, Blackgrass (blackgrass [13]; [25]) | Plant response rating, Foxtail, Green (green foxtail [15]; [25]) | Plant response rating, Kochia (kochia [16]; [24]) | Plant response rating, Oat, Wild (oat, wild [17]; [25]) | Plant response rating, Pigweed, Palmer (pigweed, palmer [18]; [24]) | Plant response rating, Galium (galium; [24]) | Plant response rating, Horseweed (horseweed; [24])
98: Plant response rating, Sedge, Umbrella (Flood) (sedge, umbrella)
80: Plant response rating, Oat, Wild (oat, wild [6]) | Ryegrass, Italian plant response rating (ryegrass, Italian [9]) | Plant response rating, Wheat (wheat [11]) | Plant response rating, Corn (corn [14]; [25]) | Plant response rating, Ryegrass, Italian (ryegrass, Italian [20]; [25])
